{"source": "patent US7880002B2", "about": "“Substituted piperazinyl-pyrrolidine compounds useful as chemokine receptor antagonists” (Millennium Pharmaceuticals, Inc., priority 2004, dated 2011)", "target": "T1, CCR1 (Homo sapiens, UniProt P32246)", "T1 construct": "a monocytic derived cell line that endogenously expresses CCR1; host or cells: THP-1 cells", "T1 sequence (P32246 1-355)": "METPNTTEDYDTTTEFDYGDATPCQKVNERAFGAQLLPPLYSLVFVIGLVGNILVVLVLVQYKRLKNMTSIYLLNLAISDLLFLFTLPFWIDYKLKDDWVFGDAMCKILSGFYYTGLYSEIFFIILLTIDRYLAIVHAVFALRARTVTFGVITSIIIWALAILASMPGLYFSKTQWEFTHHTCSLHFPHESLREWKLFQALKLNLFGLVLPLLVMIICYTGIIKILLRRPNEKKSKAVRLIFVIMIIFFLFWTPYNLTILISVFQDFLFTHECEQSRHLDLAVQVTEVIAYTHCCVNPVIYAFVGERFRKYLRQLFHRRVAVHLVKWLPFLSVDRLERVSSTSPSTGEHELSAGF", "experiment": "CCR1 inhibition (THP-1 FLIPR assay / THP-1 whole cell radioligand binding assay; the patent does not say which gave the values)", "format": "cell-based", "conditions": "threshold list, less than 100 nm; compounds of Table 1; read-out: inhibitory activity", "procedure": "The primary screening assay is a FLIPR® (Fluorometric Imaging Plate Reader, available from Molecular Devices Corporation, Sunnyvale, Calif.) assay using THP-1 cells (ATCC, Catalog No. TIB 202), a monocytic derived cell line that endogenously expresses CCR1.\nThe cells were resuspended at 1×10^6 cells/ml in dye loading media (growth media (RPMI+10% FBS (Fetal Bovine serum)+5.5×10^−5M 2-mercaptoethanol)+10 mM HEPES (N-2-hydroxyethylpiperazine-N′-2-ethane-sulfonic acid)+2.5 mM probenecid+fluo-3 (1:250)). The cells were incubated for 1 hour at 37° C. and then washed in FLIPR wash buffer (100 mL 10× HBSS (Hanks Buffered Saline Solution) (w/Ca++/Mg++)+20 mL 1M HEPES+1 g BSA+10 mL 250 mM probenecid+water (to make 1 L)) and plated at 50,000 cells/well in black/clear 384 well plates. The plates were transferred to FLIPR where the ability of different concentrations of compounds to inhibit RANTES induced calcium flux was assessed. Inhibition of the CCR1 response was reflected by a decrease of the fluorescence signal relative to the positive controls (RANTES alone).\nTHP-1 Whole Cell Radioligand Binding Assay\nThe cells were washed with PBS (phosphate buffered saline) and resuspended in binding buffer (10 mM HEPES pH 7.2, 1× HBSS (w/Ca^2+, Mg^2+) 0.5% BSA, 0.02% Na-azide) at 4×10^6 cells/ml (for 200, 000 cells/well). Cells were incubated with 0.1 to 0.2 nM [^125I]-labeled MIP-1α with or without unlabeled competitor (MIP-1α) or various concentrations of compounds for 60 minutes at room temperature. The assay was terminated by vacuum filtration through glass fiber filters (GF/B, Packard) which were presoaked in 0.3% polyethyleneimine. The filters were washed with wash buffer (10 mM HEPES, pH 7.2, 1 mM CaCl2, 5 mM MgCl2 0.5M NaCl), dried and the amount of bound radioactivity was determined by scintillation counting.", "note": "pIC50: −log10 of the molar value."}
{"smiles": "O=C(c1ccc(Cl)cc1)N1CCN([C@@H]2CN(c3nc(C(F)(F)F)nc4cnccc34)C[C@H]2O)CC1", "note": "(racemic) [Example 137, 4-[4-(4-chlorobenzoyl)piperazin-1-yl]-1-[2-(trifluoromethyl)pyrido[3,4-d]pyrimidin-4-yl]pyrrolidin-3-ol]", "values": [{"measurement": "pIC50", "value": "> 7.00"}]}
{"smiles": "O=C(c1ccc(Cl)cc1)N1CCN([C@@H]2CN(c3ncnc4cc(Cl)cnc34)C[C@H]2O)CC1", "note": "(racemic) [Example 162, 4-[4-(4-chlorobenzoyl)piperazin-1-yl]-1-(7-chloropyrido[3,2-d]pyrimidin-4-yl)pyrrolidin-3-ol]", "values": [{"measurement": "pIC50", "value": "> 7.00"}]}
{"smiles": "O=C(c1ccc(Cl)cc1)N1CCN([C@H]2CN(c3ncnc4cnccc34)C[C@@H]2O)CC1", "note": "(racemic) [Example 182, 4-[4-(4-chlorobenzoyl)piperazin-1-yl]-1-pyrido[3,4-d]pyrimidin-4-ylpyrrolidin-3-ol]", "values": [{"measurement": "pIC50", "value": "> 7.00"}]}
{"smiles": "COc1cc2c(N3C[C@H](O)[C@@H](N4CCN(C(=O)c5ccc(Cl)cc5)CC4)C3)nc(C(F)(F)F)nc2cn1", "note": "(racemic) [Example 183, 4-[4-(4-chlorobenzoyl)piperazin-1-yl]-1-[6-methoxy-2-(trifluoromethyl)pyrido[3,4-d]pyrimidin-4-yl]pyrrolidin-3-ol]", "values": [{"measurement": "pIC50", "value": "> 7.00"}]}
{"smiles": "COc1ccc2nc(C(F)(F)F)nc(N3C[C@@H](O)[C@H](N4CCN(C(=O)c5ccc(Cl)cc5)CC4)C3)c2n1", "note": "(racemic) [Example 200, 4-[4-(4-chlorobenzoyl)piperazin-1-yl]-1-[6-methoxy-2-(trifluoromethyl)pyrido[3,2-d]pyrimidin-4-yl]pyrrolidin-3-ol]", "values": [{"measurement": "pIC50", "value": "> 7.00"}]}
{"smiles": "O=C(c1ccc(Cl)cc1)N1CCN([C@@H]2CN(c3ccnc4cc(Cl)ccc34)C[C@H]2O)CC1", "note": "(stereo in doubt) [Example 1, 4-[4-(4-chlorobenzoyl)piperazin-1-yl]-1-(7-chloroquinolin-4-yl)pyrrolidin-3-ol]", "values": [{"measurement": "pIC50", "value": "> 7.00"}]}
{"smiles": "O=C(c1ccc(Cl)cc1)N1CCN([C@@H]2CN(c3nccc(C(F)(F)F)n3)C[C@H]2O)CC1", "note": "(stereo in doubt) [Example 3, 4-[4-(4-chlorobenzoyl)piperazin-1-yl]-1-[4-(trifluoromethyl)pyrimidin-2-yl]pyrrolidin-3-ol]", "values": [{"measurement": "pIC50", "value": "> 7.00"}]}
{"smiles": "O=C(c1ccc(Cl)cc1)N1CCN([C@@H]2CN(c3ncnc4cc(Cl)ccc34)C[C@H]2O)CC1", "note": "(stereo in doubt) [Example 23, 4-[4-(4-chlorobenzoyl)piperazin-1-yl]-1-(7-chloroquinazolin-4-yl)pyrrolidin-3-ol]", "values": [{"measurement": "pIC50", "value": "> 7.00"}]}
{"smiles": "O=C(c1ccc(Cl)cc1)N1CCN([C@H]2CN(c3cc(C(F)(F)F)nc4c(C(F)(F)F)cccc34)C[C@@H]2O)CC1", "note": "(stereo in doubt) [Example 26, 1-[2,8-bis(trifluoromethyl)quinolin-4-yl]-4-[4-(4-chlorobenzoyl)piperazin-1-yl]pyrrolidin-3-ol]", "values": [{"measurement": "pIC50", "value": "> 7.00"}]}
{"smiles": "O[C@H]1CN(c2ncnc3cc(Cl)ccc23)C[C@@H]1N1CCC(Oc2ccc(Cl)cc2)CC1", "note": "(stereo in doubt) [Example 80, 4-[4-(4-chlorophenoxy)piperidin-1-yl]-1-(7-chloroquinazolin-4-yl)pyrrolidin-3-ol]", "values": [{"measurement": "pIC50", "value": "> 7.00"}]}
{"smiles": "O=C(c1ccc(Cl)cc1)N1CCN([C@@H]2CN(c3ncnc4ccc(Cl)cc34)C[C@H]2O)CC1", "note": "(stereo in doubt) [Example 81, 4-[4-(4-chlorobenzoyl)piperazin-1-yl]-1-(6-chloroquinazolin-4-yl)pyrrolidin-3-ol]", "values": [{"measurement": "pIC50", "value": "> 7.00"}]}
{"smiles": "O=C(c1ccc(Cl)cc1)N1CCN([C@H]2CN(c3ccc4cccc(Cl)c4n3)C[C@@H]2O)CC1", "note": "(stereo in doubt) [Example 85, 4-[4-(4-chlorobenzoyl)piperazin-1-yl]-1-(8-chloroquinolin-2-yl)pyrrolidin-3-ol]", "values": [{"measurement": "pIC50", "value": "> 7.00"}]}
{"smiles": "O=C(c1ccc(Cl)cc1)N1CCN([C@@H]2CN(c3ncnc4cc(F)ccc34)C[C@H]2O)CC1", "note": "(stereo in doubt) [Example 86, 4-[4-(4-chlorobenzoyl)piperazin-1-yl]-1-(7-fluoroquinazolin-4-yl)pyrrolidin-3-ol]", "values": [{"measurement": "pIC50", "value": "> 7.00"}]}
{"smiles": "O[C@H]1CN(c2ncnc3cc(Cl)ccc23)C[C@@H]1N1CCN(Cc2ccc(Cl)cc2)CC1", "note": "(stereo in doubt) [Example 87, 4-[4-(4-chlorobenzyl)piperazin-1-yl]-1-(7-chloroquinazolin-4-yl)pyrrolidin-3-ol]", "values": [{"measurement": "pIC50", "value": "> 7.00"}]}
{"smiles": "O=C(c1ccc(Cl)cc1)N1CCN([C@@H]2CN(c3ncnc4cc(C(F)(F)F)ccc34)C[C@H]2O)CC1", "note": "(stereo in doubt) [Example 93, 4-[4-(4-chlorobenzoyl)piperazin-1-yl]-1-[7-(trifluoromethyl)quinazolin-4-yl]pyrrolidin-3-ol]", "values": [{"measurement": "pIC50", "value": "> 7.00"}]}
{"smiles": "O=C(c1ccc(Cl)cc1)N1CCN([C@@H]2CN(c3nc(C(F)(F)F)nc4ccccc34)C[C@H]2O)CC1", "note": "(stereo in doubt) [Example 94, 4-[4-(4-chlorobenzoyl)piperazin-1-yl]-1-[2-(trifluoromethyl)quinazolin-4-yl]pyrrolidin-3-ol]", "values": [{"measurement": "pIC50", "value": "> 7.00"}]}
{"smiles": "O[C@H]1CN(c2nc(C(F)(F)F)nc3ccccc23)C[C@@H]1N1CCN(Cc2ccc(Cl)cc2)CC1", "note": "(stereo in doubt) [Example 95, 4-[4-(4-chlorobenzyl)piperazin-1-yl]-1-[2-(trifluoromethyl)quinazolin-4-yl]pyrrolidin-3-ol]", "values": [{"measurement": "pIC50", "value": "> 7.00"}]}
{"smiles": "O[C@H]1CN(c2ncnc3cc(C(F)(F)F)ccc23)C[C@@H]1N1CCN(Cc2ccc(Cl)cc2)CC1", "note": "(stereo in doubt) [Example 97, 4-[4-(4-chlorobenzyl)piperazin-1-yl]-1-[7-(trifluoromethyl)quinazolin-4-yl]pyrrolidin-3-ol]", "values": [{"measurement": "pIC50", "value": "> 7.00"}]}
{"smiles": "O=C(c1ccc(Cl)cc1)N1CCN([C@@H]2CN(c3ncnc4cc(F)c(F)cc34)C[C@H]2O)CC1", "note": "(stereo in doubt) [Example 102, 4-[4-(4-chlorobenzoyl)piperazin-1-yl]-1-(6,7-difluoroquinazolin-4-yl)pyrrolidin-3-ol]", "values": [{"measurement": "pIC50", "value": "> 7.00"}]}
{"smiles": "O=C(c1ccc(Cl)cc1)N1CCN([C@@H]2CN(c3nc(Nc4ccc(Cl)cc4)cc(C(F)(F)F)n3)C[C@H]2O)CC1", "note": "(stereo in doubt) [Example 106, 4-[4-(4-chlorobenzoyl)piperazin-1-yl]-1-[4-[(4-chlorophenyl)amino]-6-(trifluoromethyl)pyrimidin-2-yl]pyrrolidin-3-ol]", "values": [{"measurement": "pIC50", "value": "> 7.00"}]}
{"smiles": "Cc1cc(C(F)(F)F)nc(N2C[C@@H](O)[C@H](N3CCN(C(=O)c4ccc(Cl)cc4)CC3)C2)n1", "note": "(stereo in doubt) [Example 107, 4-[4-(4-chlorobenzoyl)piperazin-1-yl]-1-[4-methyl-6-(trifluoromethyl)pyrimidin-2-yl]pyrrolidin-3-ol]", "values": [{"measurement": "pIC50", "value": "> 7.00"}]}
{"smiles": "Cc1cc(C(F)(F)F)nc(N2C[C@@H](O)[C@H](N3CCN(Cc4ccc(Cl)cc4)CC3)C2)n1", "note": "(stereo in doubt) [Example 108, 4-[4-(4-chlorobenzyl)piperazin-1-yl]-1-[4-methyl-6-(trifluoromethyl)pyrimidin-2-yl]pyrrolidin-3-ol]", "values": [{"measurement": "pIC50", "value": "> 7.00"}]}
{"smiles": "O=C(c1ccc(Cl)cc1)N1CCN([C@@H]2CN(c3nc(C(F)(F)F)cc(C(F)(F)F)n3)C[C@H]2O)CC1", "note": "(stereo in doubt) [Example 109, 1-[4,6-bis(trifluoromethyl)pyrimidin-2-yl]-4-[4-(4-chlorobenzoyl)piperazin-1-yl]pyrrolidin-3-ol]", "values": [{"measurement": "pIC50", "value": "> 7.00"}]}
{"smiles": "O=C(c1ccc(Cl)cc1)N1CCN([C@@H]2CN(c3nc(C(F)(F)F)nc4cc(C(F)(F)F)ccc34)C[C@H]2O)CC1", "note": "(stereo in doubt) [Example 111, 1-[2,7-bis(trifluoromethyl)quinazolin-4-yl]-4-[4-(4-chlorobenzoyl)piperazin-1-yl]pyrrolidin-3-ol]", "values": [{"measurement": "pIC50", "value": "> 7.00"}]}
{"smiles": "O=C(c1ccc(Cl)cc1)N1CCN([C@@H]2CN(c3cc(C(F)(F)F)cc(C(F)(F)F)c3)C[C@H]2O)CC1", "note": "(stereo in doubt) [Example 113, 1-[3,5-bis(trifluoromethyl)phenyl]-4-[4-(4-chlorobenzoyl)piperazin-1-yl]pyrrolidin-3-ol]", "values": [{"measurement": "pIC50", "value": "> 7.00"}]}
{"smiles": "O[C@@H]1CN(c2ncnc3cc(Cl)ccc23)C[C@H]1N1CCN(Cc2ccc(F)cc2)CC1", "note": "(stereo in doubt) [Example 115, 1-(7-chloroquinazolin-4-yl)-4-[4-(4-fluorobenzyl)piperazin-1-yl]pyrrolidin-3-ol]", "values": [{"measurement": "pIC50", "value": "> 7.00"}]}
